The values that follow come from ChEMBL document CHEMBL4346735, “Discovery and pharmacological evaluation of indole derivatives as potent and selective RORγt inverse agonist for multiple autoimmune conditions” (Bioorg Med Chem Lett, 2019).

Structures are written as SMILES. Active and inactive are the calls of the source.

A short description of series [1]: Metabolic stability in mouse liver microsomes assessed as parent compound remaining at 1 uM preincubated for 5 mins followed by NADPH addition after 30 mins by LC-MS/MS analysis. The format is ADME, Microsome. The note with it: read-out: Stability. On the technique in general: Liver microsomes are a subcellular fraction often used to study metabolism.
For series [2], the target named is T1, Nuclear receptor ROR-gamma (Homo sapiens) (UniProt P51449).
T1 sequence (whole entry): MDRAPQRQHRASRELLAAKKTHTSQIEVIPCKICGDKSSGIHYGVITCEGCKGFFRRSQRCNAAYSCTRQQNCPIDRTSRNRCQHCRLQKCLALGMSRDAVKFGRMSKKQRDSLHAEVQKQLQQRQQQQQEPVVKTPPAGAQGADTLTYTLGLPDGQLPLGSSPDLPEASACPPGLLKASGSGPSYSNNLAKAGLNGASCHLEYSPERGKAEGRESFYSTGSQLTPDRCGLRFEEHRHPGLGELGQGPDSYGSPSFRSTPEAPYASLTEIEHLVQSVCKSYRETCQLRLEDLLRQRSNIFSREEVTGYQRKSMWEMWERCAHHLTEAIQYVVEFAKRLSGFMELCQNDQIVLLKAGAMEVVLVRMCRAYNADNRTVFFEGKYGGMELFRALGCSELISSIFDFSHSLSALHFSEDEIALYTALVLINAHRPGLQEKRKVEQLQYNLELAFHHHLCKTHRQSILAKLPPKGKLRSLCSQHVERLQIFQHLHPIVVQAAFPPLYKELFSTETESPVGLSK
Briefly: Transactivation of recombinant GAL4-DBD fused RORgammat LBD (unknown origin) expressed in HEK293T cells at 1 uM incubated for 18 to 24 hrs by dual-Glo luciferase assay relative to control. The format is cell-based.

Series [3] is described as follows: Half life in Sprague-Dawley rat at 3 mg/kg, iv administered as single dose measured up to 24 hrs by LC-MS/MS analysis. The format is ADME, organism-based. The note with it: in vivo.
Series [4] can be described thus: Cmax in Balb/c mouse at 10 mg/kg, po. The note with it: in vivo. Further details: dose 10 mg/kg, route oral. The format is ADME, organism-based.
Series [5] can be described thus: AUC (0 to infinity) in Sprague-Dawley rat at 3 mg/kg, iv administered as single dose measured up to 24 hrs by LC-MS/MS analysis. In kind it is ADME, organism-based. Further details: dose 3 mg/kg, time infinity, route intravenous. The settings on record: in vivo.
Series [6] is described as follows: Half life in Balb/c mouse at 3 mg/kg, iv. In kind it is ADME, organism-based. The settings on record: in vivo.
The nature of series [7]: AUC (0 to infinity) in Sprague-Dawley rat at 10 mg/kg, po via gavage measured up to 24 hrs by LC-MS/MS analysis. The format is ADME, organism-based. Set-up: dose 10 mg/kg, time infinity, route oral. The settings on record: in vivo.
Series [8] in a line: Tmax in Balb/c mouse at 10 mg/kg, po. The format is ADME, organism-based. The settings on record: in vivo.
Series [9] in a line: Oral bioavailability in Sprague-Dawley rat at 10mg/kg via gavage measured up to 24 hrs by LC-MS/MS analysis. In kind it is ADME, organism-based. The note with it: in vivo.
Series [10] is described as follows: Cmax in Sprague-Dawley rat at 10 mg/kg, po via gavage measured up to 24 hrs by LC-MS/MS analysis. In kind it is ADME, organism-based. Further details: dose 10 mg/kg, route oral. The settings on record: in vivo.
Series [11] can be described thus: AUC (0 to 24 hrs) in Sprague-Dawley rat at 10 mg/kg, po via gavage measured up to 24 hrs by LC-MS/MS analysis. The format is ADME, organism-based. Set-up: time < 24 hr, dose 10 mg/kg, route oral. The settings on record: in vivo.
A short description of series [12]: AUC (0 to 24 hrs) in Sprague-Dawley rat at 3 mg/kg, iv administered as single dose measured up to 24 hrs by LC-MS/MS analysis. In kind it is ADME, organism-based. Further details: time < 24 hr, dose 3 mg/kg, route intravenous. The settings on record: in vivo.
A short description of series [13]: Clearance in Sprague-Dawley rat at 3 mg/kg, iv administered as single dose measured up to 24 hrs by LC-MS/MS analysis. In kind it is ADME, organism-based. The settings on record: in vivo.
Series [14] can be described thus: Half life in Sprague-Dawley rat at 10 mg/kg, po via gavage measured up to 24 hrs by LC-MS/MS analysis. The format is ADME, organism-based. The settings on record: in vivo.
A short description of series [15]: AUC (0 to infinity) in Balb/c mouse at 10 mg/kg, po. In kind it is ADME, organism-based. Further details: dose 10 mg/kg, time infinity, route oral. The settings on record: in vivo.
Series [16] is described as follows: Half life in Balb/c mouse at 10 mg/kg, po. The format is ADME, organism-based. The settings on record: in vivo.
A short description of series [17]: Tmax in Sprague-Dawley rat at 10 mg/kg, po via gavage measured up to 24 hrs by LC-MS/MS analysis. In kind it is ADME, organism-based. The settings on record: in vivo.
Series [18] in a line: AUC (0 to 24 hrs) in Balb/c mouse at 10 mg/kg, po. In kind it is ADME, organism-based. Further details: time < 24 hr, dose 10 mg/kg, route oral. The settings on record: in vivo.
Series [19] is described as follows: Clearance in Balb/c mouse at 3 mg/kg, iv. The note with it: in vivo. In kind it is ADME, organism-based.
The nature of series [20]: AUC (0 to 24 hrs) in Balb/c mouse at 3 mg/kg, iv. In kind it is ADME, organism-based. Set-up: time < 24 hr, dose 3 mg/kg, route intravenous. The settings on record: in vivo.
The nature of series [21]: Volume of distribution at steady state in Sprague-Dawley rat at 3 mg/kg, iv administered as single dose measured up to 24 hrs by LC-MS/MS analysis. In kind it is ADME, organism-based. The note with it: in vivo, read-out: Vdss.
The nature of series [22]: Volume of distribution at steady state in Balb/c mouse at 3 mg/kg, iv. In kind it is ADME, organism-based. The settings on record: in vivo, read-out: Vdss.
Series [23] is described as follows: AUC (0 to infinity) in Balb/c mouse at 3 mg/kg, iv. In kind it is ADME, organism-based. Set-up: dose 3 mg/kg, route intravenous, time infinity. The note with it: in vivo.
The nature of series [24]: Oral bioavailability in Balb/c mouse at 10mg/kg. In kind it is ADME, organism-based. The note with it: in vivo.
In series [25] the test system is Mus musculus. In words: Immunosuppressive activity in MOG (35 to 55 residues)/pertussis toxin-induced experimental allergic encephalomyelitis C57BL/6J mouse model assessed as IFN-gamma production of CNS infiltrating CD4+ Th1 cells at 3 to 30 mg/kg, po bid by intracellular staining method. In kind it is functional, organism-based.
The species named for series [26] is Mus musculus. In words: Effect on non-RORgammat-dependent TNFA gene expression in BALB/c mouse splenocytes measured after 24 hrs in presence of anti-CD3/anti-CD28. In kind it is functional.
Series [27] addresses T2, Nuclear receptor ROR-gamma (Mus musculus) (UniProt P51450).
T2 sequence (whole entry): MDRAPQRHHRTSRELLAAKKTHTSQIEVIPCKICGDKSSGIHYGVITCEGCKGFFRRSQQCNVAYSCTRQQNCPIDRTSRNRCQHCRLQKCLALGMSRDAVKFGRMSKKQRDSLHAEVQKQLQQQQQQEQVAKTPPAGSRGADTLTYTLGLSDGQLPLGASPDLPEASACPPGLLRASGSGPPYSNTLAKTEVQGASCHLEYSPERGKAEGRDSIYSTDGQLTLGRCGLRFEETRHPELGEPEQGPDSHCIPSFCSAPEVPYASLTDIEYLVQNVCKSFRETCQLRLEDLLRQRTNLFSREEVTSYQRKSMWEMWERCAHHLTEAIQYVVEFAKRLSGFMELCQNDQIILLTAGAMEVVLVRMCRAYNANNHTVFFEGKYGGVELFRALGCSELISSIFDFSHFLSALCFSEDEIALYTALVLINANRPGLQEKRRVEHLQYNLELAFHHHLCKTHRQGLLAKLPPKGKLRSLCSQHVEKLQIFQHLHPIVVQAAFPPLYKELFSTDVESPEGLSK
In words: Transrepression of RORgammat in Balb/c mouse splenocytes assessed as inhibition of anti-CD3/anti-CD28 stimulated IL-17 gene expression at 30 uM measured after 24 hrs in presence of anti-CD3/anti-CD28. In kind it is cell-based.

For series [28], the species on record is Mus musculus. Briefly: Effect on non-RORgammat-dependent ll4 gene expression in BALB/c mouse splenocytes measured after 24 hrs in presence of anti-CD3/anti-CD28. The format is functional.
In series [29] the test system is Mus musculus. In words: Immunosuppressive activity in MOG (35 to 55 residues)/pertussis toxin-induced experimental allergic encephalomyelitis C57BL/6J mouse model assessed as reduction in disease severity at 3 to 30 mg/kg, po bid measured at days 15-19. In kind it is functional, organism-based.
The target in series [30] is T2, Nuclear receptor ROR-gamma (Mus musculus). Briefly: Transrepression of RORgammat in Balb/c mouse splenocytes assessed as inhibition of anti-CD3/anti-CD28 stimulated IL-17 gene expression at 0.3 uM measured after 24 hrs in presence of anti-CD3/anti-CD28. In kind it is cell-based.
For series [31] the target is unchanged. In words: Transrepression of RORgammat in Balb/c mouse splenocytes assessed as inhibition of anti-CD3/anti-CD28 stimulated IL-17 gene expression at 3 uM measured after 24 hrs in presence of anti-CD3/anti-CD28. The format is cell-based.
For series [32], the species on record is Mus musculus. In words: Effect on non-RORgammat-dependent il6 gene expression in BALB/c mouse splenocytes measured after 24 hrs in presence of anti-CD3/anti-CD28. The format is functional.
For series [33], the system named is Mus musculus. In words: Immunosuppressive activity in MOG (35 to 55 residues)/pertussis toxin-induced experimental allergic encephalomyelitis C57BL/6J mouse model assessed as decrease in ratio of Th17:Th1 at 3 to 30 mg/kg, po bid by intracellular staining method. In kind it is functional, organism-based.
Series [34] is filed under the species Mus musculus. In words: Effect on non-RORgammat-dependent IFNG gene expression in BALB/c mouse splenocytes measured after 24 hrs in presence of anti-CD3/anti-CD28. The format is functional.
Series [35] relates to Mus musculus. Briefly: Immunosuppressive activity in MOG (35 to 55 residues)/pertussis toxin-induced experimental allergic encephalomyelitis C57BL/6J mouse model assessed as delay in disease onset at 3 to 30 mg/kg, po bid. In kind it is functional, organism-based.

As a reminder, the inhibition is the share of the control response that was lost under treatment. For `O=C(O)c1ccc(-n2cc(C(=O)c3c(Cl)cccc3Cl)c3ccncc32)cc1`, the remaining at 0.5 h, 1 µM in series [1] was determined as 100%. The inhibition in [2] came to 27%.

The half-life is the time needed for the level to fall by half in the phase considered. A lower half-life goes with rapid decline. In general, Cmax refers to the highest concentration seen after dosing. As a reminder, the AUC(0-inf) is the area under the concentration-time curve extrapolated to infinity. The term Tmax denotes the time from dosing to the highest level. For orientation: bioavailability means the share of a dose that reaches the circulation, judged against a reference dose that is usually intravenous. High values mean much systemic uptake, low ones little systemic uptake. As a reminder, the AUC(0-t) is exposure summed from dosing to a finite time, without extrapolation to infinity. A lower AUC(0-t) goes with less exposure. Broadly, the clearance is the volume of plasma or blood freed of the substance per unit of time. A high value points to a high capacity for elimination. Consider `O=C([O-])c1ccc(-n2cc(C(=O)c3c(Cl)cccc3Cl)c3cccc(F)c32)cc1.[Na+]`, for which the half-life was 3.47 h in series [3], 2.7 h in series [6], 2.54 h in [14] and 3.5 h in series [16]. The Cmax turned out to be 7 µM in [4] and 3 µM in series [10]. The area under the curve AUC(0-inf) in series [5] turned out to be 4.11 µM·h; in [7], 7.59 µM·h; in [15], 12.7 µM·h; in series [23] it was 4.6 µM·h. The Tmax in [8] and in [17] was 0.5 h in each case. The bioavailability in series [9] was found to be 50%; in series [24], 91%. For the same compound, the AUC(0-t) at 24 h was 6.7 µM·h in series [11], 3.69 µM·h in series [12], 12.6 µM·h in [18] and 4.2 µM·h in [20]. Also, the results for the clearance in series [13] and in series [19] were 28.9 mL/min/kg and 25.2 mL/min/kg, respectively. In addition, the values for the Vd in series [21] and in series [22] were 4.32 L/kg and 4.3 L/kg, respectively.

Regarding `O=C(O)c1ccc(-n2cc(C(=O)c3c(Cl)cccc3Cl)c3cccc(F)c32)cc1`, the result with Mus musculus [25], with Mus musculus [29] and in the series with Mus musculus [35] was Active. Further, the result in the series filed under Mus musculus [26], in the series filed under Mus musculus [28], in the series filed under Mus musculus [32] and in the series filed under Mus musculus [34] was inactive. The inhibition in [27] came to 76%; in [30], 2%; in series [31], 52%. Moreover, the inhibition result with Mus musculus [33] is “Active”.
